Experiments:
[1] = target: Aurora B (Homo sapiens, UniProt Q96GD4); test: Aurora-B microfluidic kinase assay; conditions: biochemical; mean of two determinations or mean ±SD for n > 2
Excerpt: (§1) As part of our medicinal chemistry programme to discover selective inhibitors of Aurora-A,[12] we introduced the 1-benzyl-1H-pyrazol-4-yl moiety at C7 of the imidazo[4,5-b]pyridine scaffold to provide 7a (Table 1). We previously reported 1,3-dimethyl-1H-pyrazol-4-yl as a preferred substituent at the C2 position of the imidazo[4,5-b]pyridine scaffold[11] and this moiety was therefore incorporated into the design of 7a and analogues presented in this study. […] This in vitro profile prompted us to investigate this C7-pyrazole substituted imidazo[4,5-b]pyridine subseries in more detail. Firstly, we attempted to increase biochemical potency against Aurora-A, and also to improve microsomal stability.
[17] Aurora-A and Aurora-B IC50 values were determined by using a microfluidic assay which monitors the separation of a phosphorylated product from its substrate, as described in Ref. [12].

[2] = Mouse liver microsomal stability; format: in vitro ADME; conditions: percentage of compound metabolised after a 30 min incubation, mouse liver microsomes
Method: (§2) [18] MLM and HLM microsomal stabilities were determined as described in Ref. [12].

[3] = Human liver microsomal stability; format: in vitro ADME; conditions: percentage of compound metabolised after a 30 min incubation, human liver microsomes
Method: as §2

[4] = tested on: SW620 human colon carcinoma cells; test: SW620 cell growth inhibition; format: cell-based; conditions: 72 h incubation
Excerpt: as §1

[5] = tested on: AMPK; test: Kinase selectivity profiling; format: biochemical; conditions: 1 µM, assay duplicates
Method: (§3) [20] Kinase selectivity profiling for compounds 7a, 7d, 14d and 14g was carried out at the International Centre for Protein Kinase Profiling, Division of Signal Transduction Therapy, University of Dundee.
(§4) Table S1: Kinase selectivity profiling of compounds 7a and 7d in a 102-kinase panel screened at a concentration of 1 µM.
(§5) Table S2: Kinase selectivity profiling of compounds 14d and 14g in a 105-kinase panel screened at a concentration of 1 µM.

[6] = target: T1, Aurora A (Homo sapiens, UniProt O14965); test: Kinase selectivity profiling; format: biochemical; conditions: 1 µM, assay duplicates
T1 sequence (O14965 1-403): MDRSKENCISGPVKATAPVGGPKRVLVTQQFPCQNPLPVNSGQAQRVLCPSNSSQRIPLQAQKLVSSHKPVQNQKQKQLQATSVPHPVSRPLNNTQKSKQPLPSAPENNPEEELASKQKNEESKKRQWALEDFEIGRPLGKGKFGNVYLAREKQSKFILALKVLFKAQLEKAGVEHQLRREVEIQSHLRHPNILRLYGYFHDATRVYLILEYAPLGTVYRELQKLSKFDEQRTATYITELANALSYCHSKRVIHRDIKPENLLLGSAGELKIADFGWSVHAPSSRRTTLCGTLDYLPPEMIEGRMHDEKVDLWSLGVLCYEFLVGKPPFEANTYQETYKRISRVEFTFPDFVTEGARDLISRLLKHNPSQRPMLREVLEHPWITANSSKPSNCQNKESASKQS
Method: as §3, §4, §5

[7] = target: CK2 (Homo sapiens, UniProt P68400); test: Kinase selectivity profiling; format: biochemical; conditions: 1 µM, assay duplicates
Chain of CK2 (P68400 whole entry): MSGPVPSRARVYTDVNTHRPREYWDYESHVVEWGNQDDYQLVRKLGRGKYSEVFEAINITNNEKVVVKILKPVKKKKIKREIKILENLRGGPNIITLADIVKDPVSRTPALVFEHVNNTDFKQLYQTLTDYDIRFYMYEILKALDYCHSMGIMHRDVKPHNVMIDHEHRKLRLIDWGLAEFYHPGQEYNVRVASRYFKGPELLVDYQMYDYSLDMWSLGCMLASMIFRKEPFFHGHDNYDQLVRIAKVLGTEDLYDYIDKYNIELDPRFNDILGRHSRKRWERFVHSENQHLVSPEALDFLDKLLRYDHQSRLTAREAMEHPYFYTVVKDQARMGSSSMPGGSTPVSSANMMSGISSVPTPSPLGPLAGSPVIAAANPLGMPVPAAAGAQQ
Method: as §3, §4, §5

[8] = target: DYRK2 (Homo sapiens, UniProt Q92630); test: Kinase selectivity profiling; format: biochemical; conditions: 1 µM, assay duplicates
Method: as §3, §4, §5

[9] = target: EPH-A2 (Homo sapiens, UniProt P29317); test: Kinase selectivity profiling; format: biochemical; conditions: 1 µM, assay duplicates
Method: as §3, §4, §5

[10] = target: HIPK1 (Homo sapiens, UniProt Q86Z02); test: Kinase selectivity profiling; format: biochemical; conditions: 1 µM, assay duplicates
Method: as §3, §4, §5

[11] = target: IRR (Homo sapiens, UniProt P14616); test: Kinase selectivity profiling; format: biochemical; conditions: 1 µM, assay duplicates
Method: as §3, §4, §5

[12] = target: JAK2 (Homo sapiens, UniProt O60674); test: Kinase selectivity profiling; format: biochemical; conditions: for JAK2 inhibition: 1 μM; for JAK2 % activity remaining: 1 µM, assay duplicates
Chain of JAK2 (O60674 whole entry): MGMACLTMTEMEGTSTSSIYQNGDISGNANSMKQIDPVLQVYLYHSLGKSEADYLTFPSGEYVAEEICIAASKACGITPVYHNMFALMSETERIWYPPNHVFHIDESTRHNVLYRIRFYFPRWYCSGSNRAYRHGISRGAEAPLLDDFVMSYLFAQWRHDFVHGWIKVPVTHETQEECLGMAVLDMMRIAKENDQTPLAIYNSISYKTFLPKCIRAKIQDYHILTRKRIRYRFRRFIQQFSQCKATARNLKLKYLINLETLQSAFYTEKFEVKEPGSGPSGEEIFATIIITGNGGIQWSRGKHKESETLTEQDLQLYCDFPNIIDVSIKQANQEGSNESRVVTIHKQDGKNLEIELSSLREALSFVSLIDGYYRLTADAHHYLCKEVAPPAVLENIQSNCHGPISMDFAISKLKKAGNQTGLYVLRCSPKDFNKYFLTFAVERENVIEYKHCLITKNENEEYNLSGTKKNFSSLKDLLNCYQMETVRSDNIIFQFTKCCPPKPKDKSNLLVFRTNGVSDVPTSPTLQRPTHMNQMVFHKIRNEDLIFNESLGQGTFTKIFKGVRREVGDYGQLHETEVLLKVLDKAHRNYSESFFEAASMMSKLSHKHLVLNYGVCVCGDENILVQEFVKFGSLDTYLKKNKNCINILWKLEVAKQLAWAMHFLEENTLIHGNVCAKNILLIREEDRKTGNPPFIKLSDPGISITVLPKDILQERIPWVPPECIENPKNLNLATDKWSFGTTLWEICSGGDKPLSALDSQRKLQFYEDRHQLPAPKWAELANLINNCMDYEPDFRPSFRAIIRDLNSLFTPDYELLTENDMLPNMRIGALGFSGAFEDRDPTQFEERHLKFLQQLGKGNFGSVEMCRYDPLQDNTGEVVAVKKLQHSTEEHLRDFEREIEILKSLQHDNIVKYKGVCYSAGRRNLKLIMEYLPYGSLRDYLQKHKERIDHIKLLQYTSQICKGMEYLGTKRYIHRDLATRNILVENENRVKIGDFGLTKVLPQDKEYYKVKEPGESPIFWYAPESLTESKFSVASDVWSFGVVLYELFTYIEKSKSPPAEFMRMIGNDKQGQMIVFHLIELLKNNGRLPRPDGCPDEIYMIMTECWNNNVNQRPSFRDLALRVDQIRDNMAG
Method: as §3, §4, §5

[13] = target: MARK3 (Homo sapiens, UniProt P27448); test: Kinase selectivity profiling; format: biochemical; conditions: 1 µM, assay duplicates
Method: as §3, §4, §5

[14] = target: MARK4 (Homo sapiens, UniProt Q96L34); test: Kinase selectivity profiling; format: biochemical; conditions: 1 µM, assay duplicates
Method: as §3, §4, §5

[15] = target: MLK1 (Homo sapiens, UniProt P80192); test: Kinase selectivity profiling; format: biochemical; conditions: for MLK1 inhibition: 1 μM; for MLK1 % activity remaining: 1 µM, assay duplicates
Chain of MLK1 (P80192 whole entry): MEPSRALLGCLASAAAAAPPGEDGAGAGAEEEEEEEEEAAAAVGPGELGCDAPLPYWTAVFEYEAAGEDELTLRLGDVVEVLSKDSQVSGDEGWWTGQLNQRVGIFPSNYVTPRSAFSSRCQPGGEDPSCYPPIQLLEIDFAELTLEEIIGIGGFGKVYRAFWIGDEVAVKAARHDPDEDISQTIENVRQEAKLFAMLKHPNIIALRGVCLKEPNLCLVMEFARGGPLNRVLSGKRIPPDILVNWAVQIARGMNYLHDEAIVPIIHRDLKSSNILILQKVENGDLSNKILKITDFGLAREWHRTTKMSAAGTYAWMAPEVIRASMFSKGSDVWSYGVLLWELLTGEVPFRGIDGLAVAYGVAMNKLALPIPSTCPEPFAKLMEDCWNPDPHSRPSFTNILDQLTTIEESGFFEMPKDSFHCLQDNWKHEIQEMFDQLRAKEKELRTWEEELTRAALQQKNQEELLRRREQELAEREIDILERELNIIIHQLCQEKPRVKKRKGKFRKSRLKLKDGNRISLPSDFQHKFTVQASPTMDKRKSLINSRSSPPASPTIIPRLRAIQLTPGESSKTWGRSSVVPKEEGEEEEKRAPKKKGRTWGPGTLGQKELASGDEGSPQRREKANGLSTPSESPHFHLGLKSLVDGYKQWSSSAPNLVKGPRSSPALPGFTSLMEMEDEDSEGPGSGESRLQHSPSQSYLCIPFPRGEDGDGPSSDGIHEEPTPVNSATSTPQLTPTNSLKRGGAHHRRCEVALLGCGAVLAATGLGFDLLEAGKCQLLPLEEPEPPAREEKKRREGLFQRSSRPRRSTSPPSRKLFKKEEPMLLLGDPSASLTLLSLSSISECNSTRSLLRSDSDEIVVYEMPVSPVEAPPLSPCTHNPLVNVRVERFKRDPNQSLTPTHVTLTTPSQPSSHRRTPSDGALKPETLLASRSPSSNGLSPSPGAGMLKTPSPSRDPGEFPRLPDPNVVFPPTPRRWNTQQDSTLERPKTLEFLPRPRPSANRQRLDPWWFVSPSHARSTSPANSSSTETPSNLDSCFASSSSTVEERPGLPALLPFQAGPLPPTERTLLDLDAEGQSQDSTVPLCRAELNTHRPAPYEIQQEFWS
Method: as §3, §4, §5

[16] = target: MLK3 (Homo sapiens, UniProt Q16584); test: Kinase selectivity profiling; format: biochemical; conditions: 1 µM, assay duplicates
Method: as §3, §4, §5

[17] = target: MNK2 (Homo sapiens, UniProt Q9HBH9); test: Kinase selectivity profiling; format: biochemical; conditions: 1 µM, assay duplicates
Chain of MNK2 (Q9HBH9 whole entry): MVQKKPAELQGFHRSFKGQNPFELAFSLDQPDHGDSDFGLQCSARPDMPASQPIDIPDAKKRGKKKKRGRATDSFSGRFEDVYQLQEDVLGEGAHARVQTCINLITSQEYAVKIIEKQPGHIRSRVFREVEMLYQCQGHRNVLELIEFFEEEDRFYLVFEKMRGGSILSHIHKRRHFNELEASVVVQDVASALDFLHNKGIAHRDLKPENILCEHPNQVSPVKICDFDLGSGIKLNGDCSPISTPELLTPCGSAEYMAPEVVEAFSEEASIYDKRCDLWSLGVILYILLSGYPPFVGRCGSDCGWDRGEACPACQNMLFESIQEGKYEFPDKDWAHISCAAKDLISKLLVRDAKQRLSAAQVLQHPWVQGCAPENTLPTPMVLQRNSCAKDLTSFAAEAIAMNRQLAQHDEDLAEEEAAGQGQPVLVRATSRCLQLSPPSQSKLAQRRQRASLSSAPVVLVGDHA
Method: as §3, §4, §5

[18] = target: MSK1 (Homo sapiens, UniProt O75582); test: Kinase selectivity profiling; format: biochemical; conditions: 1 µM, assay duplicates
Method: as §3, §4, §5

[19] = target: MST2 (Homo sapiens, UniProt Q13188); test: Kinase selectivity profiling; format: biochemical; conditions: 1 µM, assay duplicates
Method: as §3, §4, §5

[20] = target: NUAK1 (Homo sapiens, UniProt O60285); test: Kinase selectivity profiling; format: biochemical; conditions: 1 µM, assay duplicates
Method: as §3, §4, §5

[21] = target: PAK4 (Homo sapiens, UniProt O96013); test: Kinase selectivity profiling; format: biochemical; conditions: 1 µM, assay duplicates
Chain of PAK4 (O96013 whole entry): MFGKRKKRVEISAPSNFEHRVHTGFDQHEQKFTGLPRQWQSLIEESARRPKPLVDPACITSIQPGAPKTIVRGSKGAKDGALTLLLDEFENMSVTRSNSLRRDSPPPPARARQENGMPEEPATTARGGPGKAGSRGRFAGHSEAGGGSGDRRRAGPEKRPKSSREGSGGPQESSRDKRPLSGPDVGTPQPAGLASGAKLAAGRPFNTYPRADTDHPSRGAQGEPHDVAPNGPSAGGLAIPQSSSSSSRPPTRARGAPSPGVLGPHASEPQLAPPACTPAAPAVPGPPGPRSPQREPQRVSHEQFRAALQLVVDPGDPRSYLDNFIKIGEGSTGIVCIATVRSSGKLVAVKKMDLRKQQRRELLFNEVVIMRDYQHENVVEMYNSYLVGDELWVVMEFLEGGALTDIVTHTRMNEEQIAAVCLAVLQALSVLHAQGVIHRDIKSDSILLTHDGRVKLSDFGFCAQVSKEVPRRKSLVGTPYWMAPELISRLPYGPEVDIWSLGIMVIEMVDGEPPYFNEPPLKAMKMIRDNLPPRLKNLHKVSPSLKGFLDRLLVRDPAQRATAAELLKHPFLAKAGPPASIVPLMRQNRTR
Method: as §3, §4, §5

[22] = target: PAK6 (Homo sapiens, UniProt Q9NQU5); test: Kinase selectivity profiling; format: biochemical; conditions: 1 µM, assay duplicates
Method: as §3, §4, §5

[23] = target: PKBb (Homo sapiens, UniProt P31751); test: Kinase selectivity profiling; format: biochemical; conditions: 1 µM, assay duplicates
Method: as §3, §4, §5

[24] = target: PKCa (Homo sapiens, UniProt P17252); test: Kinase selectivity profiling; format: biochemical; conditions: 1 µM, assay duplicates
Method: as §3, §4, §5

[25] = target: PKD1 (Homo sapiens, UniProt Q15139); test: Kinase selectivity profiling; format: biochemical; conditions: 1 µM, assay duplicates
Method: as §3, §4, §5

[26] = target: ROCK 2 (Homo sapiens, UniProt O75116); test: Kinase selectivity profiling; format: biochemical; conditions: 1 µM, assay duplicates
Method: as §3, §4, §5

[27] = target: RSK2 (Homo sapiens, UniProt P51812); test: Kinase selectivity profiling; format: biochemical; conditions: 1 µM, assay duplicates
Method: as §3, §4, §5

[28] = target: TAK1 (Homo sapiens, UniProt O43318); test: Kinase selectivity profiling; format: biochemical; conditions: 1 µM, assay duplicates
Method: as §3, §4, §5

[29] = target: TTK (Homo sapiens, UniProt P33981); test: Kinase selectivity profiling; format: biochemical; conditions: 1 µM, assay duplicates
Method: as §3, §4, §5

[30] = target: VEG-FR (Homo sapiens, UniProt P17948); test: Kinase selectivity profiling; format: biochemical; conditions: for VEGFR inhibition: 1 μM; for VEG-FR % activity remaining: 1 µM, assay duplicates
Chain of VEG-FR (P17948 27-1338): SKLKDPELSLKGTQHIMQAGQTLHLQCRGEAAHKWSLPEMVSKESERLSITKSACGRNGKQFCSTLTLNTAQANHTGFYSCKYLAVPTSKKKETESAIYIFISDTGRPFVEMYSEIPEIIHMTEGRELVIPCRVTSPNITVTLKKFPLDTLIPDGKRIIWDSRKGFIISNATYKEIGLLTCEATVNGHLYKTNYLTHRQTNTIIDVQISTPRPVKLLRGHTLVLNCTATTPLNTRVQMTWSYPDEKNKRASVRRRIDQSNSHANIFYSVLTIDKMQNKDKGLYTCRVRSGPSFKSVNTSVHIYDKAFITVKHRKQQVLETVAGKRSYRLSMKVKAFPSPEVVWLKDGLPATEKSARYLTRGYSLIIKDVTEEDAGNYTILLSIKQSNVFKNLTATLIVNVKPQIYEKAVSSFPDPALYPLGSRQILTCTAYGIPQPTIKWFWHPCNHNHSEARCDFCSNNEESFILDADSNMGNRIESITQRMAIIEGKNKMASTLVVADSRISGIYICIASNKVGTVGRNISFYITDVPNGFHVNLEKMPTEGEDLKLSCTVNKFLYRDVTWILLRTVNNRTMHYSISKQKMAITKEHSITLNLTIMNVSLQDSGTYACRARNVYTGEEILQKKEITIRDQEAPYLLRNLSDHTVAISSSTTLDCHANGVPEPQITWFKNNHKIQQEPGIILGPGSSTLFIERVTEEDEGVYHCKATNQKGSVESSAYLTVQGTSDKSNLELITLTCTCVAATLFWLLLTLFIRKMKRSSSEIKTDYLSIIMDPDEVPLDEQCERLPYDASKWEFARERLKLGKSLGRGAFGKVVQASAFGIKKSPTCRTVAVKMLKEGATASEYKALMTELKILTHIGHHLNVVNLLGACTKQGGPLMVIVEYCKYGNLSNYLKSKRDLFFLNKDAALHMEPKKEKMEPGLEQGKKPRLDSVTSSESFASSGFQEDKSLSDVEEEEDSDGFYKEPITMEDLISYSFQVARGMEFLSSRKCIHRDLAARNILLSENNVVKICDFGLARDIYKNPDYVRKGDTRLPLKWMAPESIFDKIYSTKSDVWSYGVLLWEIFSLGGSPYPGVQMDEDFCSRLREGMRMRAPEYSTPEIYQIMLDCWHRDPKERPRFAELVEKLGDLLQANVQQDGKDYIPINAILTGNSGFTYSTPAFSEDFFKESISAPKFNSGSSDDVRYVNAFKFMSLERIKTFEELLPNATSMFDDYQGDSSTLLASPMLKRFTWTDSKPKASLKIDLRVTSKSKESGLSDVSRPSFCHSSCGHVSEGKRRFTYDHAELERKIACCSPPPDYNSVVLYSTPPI
Method: as §3, §4, §5

[31] = target: p38a MAPK (Homo sapiens, UniProt Q16539); test: Kinase selectivity profiling; format: biochemical; conditions: 1 µM, assay duplicates
Method: as §3, §4, §5

| Structure (SMILES) | IC50 [1] [µM] | MLM % met/30 min [2] [%] | HLM % met/30 min [3] [%] | GI50 [4] [µM] | AMPK % activity remaining [5] [%] | Aurora A % activity remaining [6] [%] | CK2 % activity remaining [7] [%] | DYRK2 % activity remaining [8] [%] | EPH-A2 % activity remaining [9] [%] | HIPK1 % activity remaining [10] [%] | IRR % activity remaining [11] [%] | JAK2 inhibition [12] | JAK2 % activity remaining [12] [%] | MARK3 % activity remaining [13] [%] | MARK4 % activity remaining [14] [%] | MLK1 inhibition [15] | MLK1 % activity remaining [15] [%] | MLK3 % activity remaining [16] [%] | MNK2 % activity remaining [17] [%] | MSK1 % activity remaining [18] [%] | further results |
| --- | --- | --- | --- | --- | --- | --- | --- | --- | --- | --- | --- | --- | --- | --- | --- | --- | --- | --- | --- | --- | --- |
| Cc1nn(C)cc1-c1nc2c(-c3cnn(Cc4ccccc4)c3)c(Cl)cnc2[nH]1 [Compound 7a] | 0.461 ± 0.147 | 40 | 43 | 0.18 | 50 | 1 | 62 | 29 | 70 | 3 | 20 | greater than 80% | 2 | 20 | 37 | greater than 80% | 3 | 2 | 44 | 62 | MST2 % activity remaining [19]: 60%; NUAK1 % activity remaining [20]: 1%; PAK4 % activity remaining [21]: 23%; PAK6 % activity remaining [22]: 42%; PKBb % activity remaining [23]: 62%; PKCa % activity remaining [24]: 63%; PKD1 % activity remaining [25]: 76%; ROCK 2 % activity remaining [26]: 36%; RSK2 % activity remaining [27]: 42%; TAK1 % activity remaining [28]: 6%; TTK % activity remaining [29]: 29%; VEGFR inhibition [30]: greater than 80%; VEG-FR % activity remaining [30]: 6%; p38a MAPK % activity remaining [31]: 90% |
| Cc1cc(Cn2cc(-c3c(Cl)cnc4[nH]c(-c5cn(C)nc5C)nc34)cn2)no1 [Compound 14d] | 0.075 | 35 | 37 | 0.35 | 34 | 1 | 57 | 34 | 57 | 22 | 24 | ≥ 80% | 2 | 19 | 25 | ≥ 80% | 8 | 6 | 32 | 61 | MST2 % activity remaining [19]: 80%; NUAK1 % activity remaining [20]: 8%; PAK4 % activity remaining [21]: 25%; PAK6 % activity remaining [22]: 45%; PKBb % activity remaining [23]: 94%; PKCa % activity remaining [24]: 83%; PKD1 % activity remaining [25]: 97%; ROCK 2 % activity remaining [26]: 44%; RSK2 % activity remaining [27]: 20%; TAK1 % activity remaining [28]: 18%; TTK % activity remaining [29]: 42%; VEGFR inhibition [30]: ≥ 80%; VEG-FR % activity remaining [30]: 7%; p38a MAPK % activity remaining [31]: 85% |
